Structures are written as SMILES.

In this experiment the target is T1, human S1P1 receptors (Homo sapiens, UniProt P21453).
T1 construct: expressed in transfected cells; host or cells: HeLa (human cervix carcinoma, ATCC CCL2), HeLa-S1P1/Gα16 cell clone 1
T1 sequence (P21453 whole entry): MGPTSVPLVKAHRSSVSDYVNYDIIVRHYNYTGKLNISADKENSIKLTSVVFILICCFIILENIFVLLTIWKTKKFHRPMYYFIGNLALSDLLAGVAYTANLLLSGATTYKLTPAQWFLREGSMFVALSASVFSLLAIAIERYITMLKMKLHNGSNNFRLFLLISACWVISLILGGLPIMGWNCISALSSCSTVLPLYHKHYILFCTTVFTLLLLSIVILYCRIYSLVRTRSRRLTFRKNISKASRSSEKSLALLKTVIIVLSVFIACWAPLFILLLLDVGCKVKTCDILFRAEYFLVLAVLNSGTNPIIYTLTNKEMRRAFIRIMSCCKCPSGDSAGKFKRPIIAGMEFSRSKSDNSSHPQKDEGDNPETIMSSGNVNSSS
The experiment can be described thus: Human S1P Receptor Calcium FLIPR Antagonist Assay, HeLa Gα16 S1P1. The settings on record: HeLa-S1P1/Gα16 cells; antagonism of Ca2+ signal of probing agonist GNF-AC-1 at EC80. The format is cell-based. An excerpt:
Human S1P Receptor Calcium FLIPR Antagonist Assays
The assay measures intracellular changes of Ca^2+ mediated by the synthetic probing agonist 3-{[2-(2-Trifluoromethyl-biphenyl-4-yl)-benzo[b]thiophen-5-ylmethyl]-amino}-propionic acid (GNF-AC-1) in the HeLa-S1P1/Gα16 cell clone 1: HeLa (human cervix carcinoma, ATCC CCL2) cells stably expressing N-terminally myc-tagged human S1P1 receptors (GenBank™ accession No. NM_001400; UNIPROT P21453) and promiscuous Gα16 protein (GenBank™ accession number M63904, Swissprot P30679) are cultured at 37° C., 5% CO2, and 95% relative humidity. The cells are plated in 384 well black plates (10,000 cells per well). After 24 hours the cells are loaded with Fluo4-AM (1.6 μM in HBSS and 2.5 mM probenicid) for 1 hour at 37° C. After washing, the cells are transferred to the FLIPR. The test compounds are added at different concentrations (≦30 μM) in HBSS in the presence of 0.1% BSA and changes in fluorescence are recorded (indication of agonism). The probing agonist is added 15 minutes afterwards to the wells at a concentration giving 80% of the maximal activity (EC80). After each addition time points are collected as follows: 20 time points (2 seconds) before the addition of the agonist (Fmin) and 60 time points (1 or 2 seconds) after the addition of the probing agonist. This allows the determination of the maximal fluorescence (Fmax). The ratio (Fmax-Fmin)/Fmin is plotted against the log of the concentration of the test compounds and the IC50 (relative antagonism) is determined with the help of XLfit-4 software. […] A dose response curve of the probing agonist is determined on each plate in parallel. The compounds of the invention are typically active in this assay at a concentration ranging typically from <1 nM to 30 μM, usually from less than 1 nanomolar to 1 micromolar.
With `Cc1cc(S(=O)(=O)Nc2cccc(-c3cc(C)c(C(=O)NC4(C(=O)O)CC4)c(C)c3)c2)c(C)cc1Cl` [Example 149, 1-{[3′-(4-Chloro-2,5-dimethyl-benzenesulfonylamino)-3,5-dimethyl-biphenyl-4-carbonyl]-amino}-cyclopropanecarboxylic acid], the IC50 was 1.7 nM.

Take `Cc1cc(S(=O)(=O)Nc2cccc(-c3cc(C)c(C(=O)NC4(C(=O)O)CN(C(=O)OC(C)(C)C)C4)c(C)c3)c2)c(C)cc1Cl` [Example 144, 3-{[3′-(4-Chloro-2,5-dimethyl-benzenesulfonylamino)-3,5-dimethyl-biphenyl-4-carbonyl]-amino}-azetidine-1,3-dicarboxylic acid mono-tert-butyl ester]: the IC50 was determined as 4 nM.

Consider `Cc1cc(S(=O)(=O)Nc2cccc(-c3ccc(C(=O)NC4(C(=O)O)CC4)c(C)c3)c2)c(C)cc1Cl` [Example 57, 1-{[3′-(4-Chloro-2,5-dimethyl-benzenesulfonylamino)-3-methyl-biphenyl-4-carbonyl]-amino}-cyclopropanecarboxylic acid], for which the IC50 was found to be 0.8 nM.

Regarding `Cc1cc(S(=O)(=O)Nc2cccc(-c3ccc(C(=O)N[C@@H](CO)C(=O)O)c(C)c3)c2)c(C)cc1Cl` [Example 45, (S)-2-{[3′-(4-Chloro-2,5-dimethyl-benzenesulfonylamino)-3-methyl-biphenyl-4-carbonyl]-amino}-3-hydroxy-propionic acid], the IC50 was found to be 1.1 nM.

Turning to `Cc1cc(S(=O)(=O)Nc2cccc(-c3cc(C)c(C(=O)N(C)[C@@H](CO)C(=O)O)c(C)c3)c2)c(C)cc1Cl` [Example 138, (S)-2-{[3′-(4-Chloro-2,5-dimethyl-benzenesulfonylamino)-3,5-dimethyl-biphenyl-4-carbonyl]-methyl-amino}-3-hydroxy-propionic acid], the half-maximal inhibitory concentration (IC50) is 1.1 nM.

As to `Cc1cc(S(=O)(=O)Nc2cccc(-c3cc(C)c(C(=O)N[C@@H](CN)C(=O)O)c(C)c3)c2)c(C)cc1Cl` [Example 142, (S)-3-Amino-2-{[3′-(4-chloro-2,5-dimethyl-benzenesulfonylamino)-3,5-dimethyl-biphenyl-4-carbonyl]-amino}-propionic acid], the IC50 was 5.5 nM.

Take `COC[C@H](NC(=O)c1c(C)cc(-c2cccc(NS(=O)(=O)c3cc(C)c(Cl)cc3C)c2)cc1C)C(=O)O` [Example 136, (S)-2-{[3′-(4-Chloro-2,5-dimethyl-benzenesulfonylamino)-3,5-dimethyl-biphenyl-4-carbonyl]-amino}-3-methoxy-propionic acid]: the IC50 worked out at 1.7 nM.

`Cc1cc(S(=O)(=O)Nc2cccc(-c3ccc(C(=O)N(C)[C@@H](CO)C(=O)O)cc3)c2)c(C)cc1Cl` [Example 85, (S)-2-{[3′-(4-Chloro-2,5-dimethyl-benzenesulfonylamino)-biphenyl-4-carbonyl]-methyl-amino}-3-hydroxy-propionic acid]: the IC50 was determined as 1.7 nM.

Take `Cc1cc(S(=O)(=O)Nc2cccc(-c3ccc(C(=O)N[C@@H](COC(C)(C)C)C(=O)O)c(C)c3)c2)c(C)cc1Cl` [Example 48, (S)-3-tert-Butoxy-2-{[3′-(4-chloro-2,5-dimethyl-benzenesulfonylamino)-3-methyl-biphenyl-4-carbonyl]-amino}-propionic acid]: the IC50 is 9 nM.

For the compound `Cc1cc(S(=O)(=O)Nc2cccc(-c3cc(C)c(C(=O)N[C@H](C)C(=O)O)c(C)c3)c2)c(C)cc1Cl` [Example 134, (R)-2-{[3′-(4-Chloro-2,5-dimethyl-benzenesulfonylamino)-3,5-dimethyl-biphenyl-4-carbonyl]-amino}-propionic acid], the IC50 was 7 nM.

Regarding `CC[C@H](NC(=O)c1ccc(-c2cccc(NS(=O)(=O)c3cc(C)c(Cl)cc3C)c2)cc1C)C(=O)O` [Example 62, (S)-2-{[3′-(4-Chloro-2,5-dimethyl-benzenesulfonylamino)-3-methyl-biphenyl-4-carbonyl]-amino}-butyric acid], the IC50 was 0.5 nM.

As for `CC(=O)N1CC(NC(=O)c2ccc(-c3cccc(NS(=O)(=O)c4cc(C)c(Cl)cc4C)c3)cc2C)(C(=O)O)C1` [Example 56, 1-Acetyl-3-{[3′-(4-chloro-2,5-dimethyl-benzenesulfonylamino)-3-methyl-biphenyl-4-carbonyl]-amino}-azetidine-3-carboxylic acid], the IC50 was determined as 5 nM.

Turning to `Cc1cc(S(=O)(=O)Nc2cccc(-c3ccc(C(=O)N[C@@H](C)C(=O)O)cc3)c2)c(C)cc1Cl` [Example 25, (S)-2-{[3′-(4-Chloro-2,5-dimethyl-benzenesulfonylamino)-biphenyl-4-carbonyl]-amino}-propionic acid], the IC50 came to 8.8 nM.

Take `Cc1cc(S(=O)(=O)Nc2cccc(-c3cc(C)c(C(=O)N[C@H](CN)C(=O)O)c(C)c3)c2)c(C)cc1Cl` [Example 143, (R)-3-Amino-2-{[3′-(4-chloro-2,5-dimethyl-benzenesulfonylamino)-3,5-dimethyl-biphenyl-4-carbonyl]-amino}-propionic acid]: the IC50 came to 5 nM.

For `CCc1cc(-c2cccc(NS(=O)(=O)c3cc(C)c(Cl)cc3C)c2)ccc1C(=O)N[C@@H](C)C(=O)O` [Example 154, (S)-2-{[3′-(4-Chloro-2,5-dimethyl-benzenesulfonylamino)-3-ethyl-biphenyl-4-carbonyl]-amino}-propionic acid], the IC50 is 1.7 nM.

For `Cc1cc(S(=O)(=O)Nc2cccc(-c3cc(C)c(C(=O)N[C@@H](CO)C(N)=O)c(C)c3)c2)c(C)cc1Cl` [Example 153, 3′-(4-Chloro-2,5-dimethyl-benzenesulfonylamino)-3,5-dimethyl-biphenyl-4-carboxylic acid ((S)-1-carbamoyl-2-hydroxy-ethyl)-amide], the IC50 was 3 nM.

Turning to `Cc1cc(S(=O)(=O)Nc2cccc(-c3ccc(C(=O)N[C@H](CO)C(=O)O)c(C)c3)c2)c(C)cc1Cl` [Example 46, (R)-2-{[3′-(4-Chloro-2,5-dimethyl-benzenesulfonylamino)-3-methyl-biphenyl-4-carbonyl]-amino}-3-hydroxy-propionic acid], the IC50 is 0.8 nM.

As for `Cc1cc(S(=O)(=O)Nc2cccc(-c3ccc(C(=O)NCC(=O)O)c(C)c3)c2)c(C)cc1Cl` [Example 64, {[3′-(4-Chloro-2,5-dimethyl-benzenesulfonylamino)-3-methyl-biphenyl-4-carbonyl]-amino}-acetic acid], the IC50 worked out at 1.3 nM.

In the case of `COc1cc(-c2cccc(NS(=O)(=O)c3cc(C)c(Cl)cc3C)c2)ccc1C(=O)N[C@@H](CO)C(=O)O` [Example 71, (S)-2-{[3′-(4-Chloro-2,5-dimethyl-benzenesulfonylamino)-3-methoxy-biphenyl-4-carbonyl]-amino}-3-hydroxy-propionic acid], the IC50 worked out at 1 nM.

For `Cc1cc(S(=O)(=O)Nc2cccc(-c3ccc(C(=O)N[C@H](C(=O)O)C(C)(C)O)c(C)c3)c2)c(C)cc1Cl` [Example 61, (S)-2-{[3′-(4-Chloro-2,5-dimethyl-benzenesulfonylamino)-3-methyl-biphenyl-4-carbonyl]-amino}-3-hydroxy-3-methyl-butyric acid], the IC50 came to 0.4 nM.

For the compound `Cc1cc(S(=O)(=O)Nc2cccc(-c3cc(C)c(C(=O)NC4(C(=O)O)CCOCC4)c(C)c3)c2)c(C)cc1Cl` [Example 146, 4-{[3′-(4-Chloro-2,5-dimethyl-benzenesulfonylamino)-3,5-dimethyl-biphenyl-4-carbonyl]-amino}-tetrahydro-pyran-4-carboxylic acid], the IC50 is 2 nM.

With `Cc1cc(S(=O)(=O)Nc2cccc(-c3ccc(CN[C@H](CO)C(=O)O)cc3)c2)c(C)cc1Cl` [Example 157, (R)-2-{[3′-(4-Chloro-2,5-dimethyl-benzenesulfonylamino)-biphenyl-4-ylmethyl]-amino}-3-hydroxy-propionic acid], the IC50 was 4.7 nM.

As for `Cc1cc(S(=O)(=O)Nc2cccc(-c3ccc(C(=O)N[C@H](C(=O)O)[C@@H](C)O)c(C)c3)c2)c(C)cc1Cl` [Example 47, (2S,3R)-2-{[3′-(4-Chloro-2,5-dimethyl-benzenesulfonylamino)-3-methyl-biphenyl-4-carbonyl]-amino}-3-hydroxy-butyric acid], the IC50 was 1.5 nM.

Consider `Cc1cc(S(=O)(=O)Nc2cccc(-c3ccc(C(=O)NCc4nnn[nH]4)c(C)c3)c2)c(C)cc1Cl` [Example 66, 3′-(4-Chloro-2,5-dimethyl-benzenesulfonylamino)-3-methyl-biphenyl-4-carboxylic acid (1H-tetrazol-5-ylmethyl)-amide], for which the IC50 worked out at 5.5 nM.

As for `Cc1cc(S(=O)(=O)Nc2cccc(-c3ccc(C(=O)N[C@H](CC(=O)O)c4ccccc4)cc3)c2)c(C)cc1Cl` [Example 36, (R)-3-{[3′-(4-Chloro-2,5-dimethyl-benzenesulfonylamino)-biphenyl-4-carbonyl]-amino}-3-phenyl-propionic acid], the IC50 was found to be 9.4 nM.

The IC50 is the concentration that gives 50% inhibition.

These data come from patent US20100029609A1 (priority 2006, published 2010).
